In patent US8143212B2 (Vicuron Pharmaceuticals Inc., priority 2002, dated 2012):
Converted amounts (≈) assume the structure as drawn.

Experiments:
Assay type in all cases: cell-based
gram positive bacteria = assay: MIC by broth microdilution (NCCLS), with or without 30% bovine serum (Table 42)
Description: (§1) Before dissolution, each sample was analyzed by HPLC and quantified.
(§2) The microorganisms used were reference strains obtained from the American Type Culture Collection (ATCC) (Rockville, Md.), SmithKline and French Laboratories (SKF), and the Upjohn Company (UC) (Kalamazoo, Mich.).
(§3) MICs were determined by the broth microdilution methodology following the standard NCCLS procedure (NCCLS Document M7-A6, Vol. 23, No. 2, “Methods for dilution antimicrobial susceptibility tests for bacteria that grow aerobically.” Approved Guideline. January 2003, which can be herein incorporated by reference in its entirety), with or without 30% adult bovine serum (BS) (PAA Laboratories GMBH, Haidmannweg Pasching Austria), using bacterial innocula at approximately 5×10^5 CFU/ml. The media employed included cation-adjusted Müller Hinton broth (Difco Laboratories, Detroit, Mich.) that was used that was adjusted with CaCl2 and MgCl2 to a final concentration of 20 mg/L and 10 mg/L, respectively. Tests were read following 20-24 hours of incubation at 35° C.

gram-negative bacteria = assay: MIC by broth microdilution (NCCLS) (Table 42)
Description: as §1, §2, §3

[1] = test system: Candida albicans SKF 2270; assay: MIC by broth microdilution (NCCLS) (Tables 42, 44); settings: Candida albicans SKF 2270 (Table 42)
[2] = E. faecalis ATCC29212 ref. strain
[3] = Enterococcus faecalis ATCC 7080
[4] = S. aureus ATCC 29213 ref. strain
[5] = Staphylococcus aureus Smith ATCC 19636
[6] = Streptococcus pyrogenes SKF 13400
[7] = Pseudomonas aeruginosas ATCC 10145

| MIC range (gram-negative bacteria; representative panel of gram-negative bacteria) [µg/mL] | SMILES | MIC (gram positive bacteria; Bacillus subtilis ATCC 6633) | MIC (gram positive bacteria; [2]) | MIC (gram positive bacteria; [3]) [µg/mL] | MIC (gram positive bacteria; [4]) [µg/mL] | MIC (gram positive bacteria; S. aureus Smith + 30% BS) [µg/mL] | MIC (gram positive bacteria; S. epidermidis ATCC 12228) | MIC (gram positive bacteria; S. pneumoniae Felton UC41) | MIC (gram positive bacteria; [5]) [µg/mL] | MIC (gram positive bacteria; [6]) | MIC (gram-negative bacteria; E. coli ATCC25922 ref. strain) [µg/mL] | MIC (gram-negative bacteria; Escherichia coli SKF 12140) [µg/mL] | MIC (gram-negative bacteria; Proteus vulgaris ATCC 881) [µg/mL] | MIC (gram-negative bacteria; [7]) [µg/mL] | MIC [1] [µg/mL] | activity across the range of gram-positive bacteria (gram positive bacteria) |
| --- | --- | --- | --- | --- | --- | --- | --- | --- | --- | --- | --- | --- | --- | --- | --- | --- |
|  | C[C@@H]1[C@H](O)[C@@H](C)/C=C/C=C/C=C/C=C/C=C/C=C/C=C/[C@H](O[C@@H]2O[C@H](C)[C@@H](O)[C@H](N)[C@@H]2O)C[C@@H]2O[C@](O)(C[C@@H](O)C[C@@H](O)[C@H](O)CC[C@@H](O)C[C@@H](O)CC(=O)O[C@H]1C)C[C@H](O)[C@H]2C(=O)O [Amphotericin B] | >64 µg/mL | >64 µg/mL | >64 | >64 | >64 | >64 µg/mL | >64 µg/mL | >64 | 32 µg/mL (≈ 34.6 µM) | >64 | >64 | >64 | >64 | 0.125 (≈ 0.135 µM) |  |
|  | CN[C@H]1C(=O)N[C@@H]2Cc3ccc(cc3)Oc3cc4cc(c3O[C@@H]3O[C@H](C(=O)O)[C@@H](O)[C@H](O)[C@H]3NC(=O)CCCCCCCC(C)C)Oc3ccc(cc3Cl)[C@@H](O)[C@@H]3NC(=O)[C@H](NC(=O)[C@@H]4NC(=O)[C@@H](NC2=O)c2cc(cc(O)c2Cl)Oc2cc1ccc2O)c1ccc(O)c(c1)-c1c(O[C@H]2O[C@H](CO)[C@@H](O)[C@H](O)[C@@H]2O)cc(O)cc1[C@@H](C(=O)NCCCN(C)C)NC3=O [Composition A0] | ≦0.06 mg/L | ≦0.06 mg/L | 0.125 (≈ 0.0693 µM) | 0.125 (≈ 0.0693 µM) | 1 | 0.125 µg/mL (≈ 0.0693 µM) | 0.125 µg/mL (≈ 0.0693 µM) | 0.125 (≈ 0.0693 µM) | 0.015 µg/mL (≈ 0.00832 µM) | >64 | >64 | >64 | >64 | >64 |  |
|  | CN[C@H]1C(=O)N[C@@H]2Cc3ccc(cc3)Oc3cc4cc(c3O[C@@H]3O[C@H](C(=O)O)[C@@H](O)[C@H](O)[C@H]3NC(=O)CCCCCCCCC(C)C)Oc3ccc(cc3Cl)[C@@H](O)[C@@H]3NC(=O)[C@H](NC(=O)[C@@H]4NC(=O)[C@@H](NC2=O)c2cc(cc(O)c2Cl)Oc2cc1ccc2O)c1ccc(O)c(c1)-c1c(O[C@H]2O[C@H](CO)[C@@H](O)[C@H](O)[C@@H]2O)cc(O)cc1[C@@H](C(=O)NCCCN(C)C)NC3=O [Composition B0, ristomycin A aglycone, 5,31-dichloro-38-de(methoxycarbonyl)-7-demethyl-19-deoxy-56-O-(2-deoxy-2-((10-methyl-1-oxoundecyl)amino)-beta-D-glucopyranuronosyl)-38-(((3-(dimethylamino)propyl)amino)-carbonyl)-42-O-alpha-D-mannopyranosyl-N^15-methyl-] | ≦0.06 mg/L | 0.125 µg/mL (≈ 0.0688 µM) | 0.125 (≈ 0.0688 µM) | 0.125 (≈ 0.0688 µM) | 2 | ≦0.06 mg/L | ≦0.06 mg/L | 0.25 (≈ 0.138 µM) | ≦0.06 mg/L | >64 | >64 | >64 | >64 | >64 |  |
| 16 to 32 | CC(C)CCCCCCCCC(=O)N[C@H]1[C@H](Oc2c3cc4cc2Oc2ccc(cc2Cl)[C@@H](O)[C@@H]2NC(=O)[C@H](NC(=O)[C@@H]4NC(=O)[C@H]4NC(=O)[C@@H](Cc5ccc(cc5)O3)NC(=O)[C@H](N(C)C)c3ccc(O)c(c3)Oc3cc(O)c(Cl)c4c3)c3ccc(O)c(c3)-c3c(O[C@H]4O[C@H](CO)[C@@H](O)[C@H](O)[C@@H]4O)cc(O)cc3[C@@H](C(=O)NCCCN(C)C)NC2=O)O[C@H](C(=O)O)[C@@H](O)[C@@H]1O [Composition B2, N^15,N^15-dimethyl dalbavancin B0] |  |  |  |  |  |  |  |  |  |  |  |  |  |  | comparable to or greater than the activity of B0 |
